From patent US20140038967A1, “NOVEL USE FOR IMIDAZOTRIAZINONES” (ALGIAX PHARMACEUTICALS GMBH, priority 2011, published 2014)

Tests used:
[1] = tested on: severe spinal cord contusion injury; assay: BBB open field locomotor rating scale after severe spinal cord contusion injury, intrathecal treatment; type: in vivo, Lewis rats
Description: Intrathecal treatment with a imidazotriazinone after severe spinal cord contusion injury in the rat.
(§1) Thirteen week-old female Lewis rats (Charles River, Sulzfeld Germany) were housed under a 12:12 h dark/light regime and allowed free access to water and food. After one week of habituation the animals underwent general anesthesia with a mixture of isoflurane and air (induction: 5% isoflurane, maintenance: 2.2% isofluorane). A T8 laminectomy was performed without rupturing the dura and a severe contusive SCI (25 gcm NYU/MASCIS II impactor) {Gruner, 1992 #3} was induced. Thereafter, the surgery continued with the procedure to position the silicon tube intrathecal catheter (7740, Alzet). Firstly, the catheter was filled with either the active or the vehicle solution. Secondly, another laminectomy was performed, again without rupturing the dura, at T11. At this position a small incision was made into the dura and the catheter was inserted at thoracic level 11 and pushed forward under lamina of T10-T9 to the lesion site at T8. […]
(§2) The BBB Open Field Locomotor Rating Scale: • The BBB locomotor rating scale was used to assess general locomotor performance (Basso et al., 1995). The score was assessed before injury and at 1, 3, 5, 7, 14, 21, 35, 42, 49, 56 and 63 days post operation (dpo) by 2 blinded observers.

[2] = tested on: severe spinal cord contusion injury; assay: Explorative rearing test after severe spinal cord contusion injury, intrathecal treatment; type: in vivo, Lewis rats; settings: intrathecal 100 μM over 14 days
Description: as §1, with “T8. The catheter was then cut at the appropriate length and connected to a filled osmotic minipump (Alzet, model 2002) which was placed subcutaneously. The overlying tissue was sutured, and a subcutaneous (s.c.) injection of 5 ml of Ringers Lactate was given. The different solutions (active or vehicle) were infused at a flow rate of 0.5 μl/h over a time period of 14 days.” for “T8.”
When placed in a Plexiglas cylinder (18 cm diameter×35.0 cm height), animals spontaneously rear and contact the walls with their forepaws. Numbers, duration and types of rears were analyzed during the 3-min recorded observation period in the cylinder (Himes et al., 2006; Shumsky et al., 2003). […] The testing session was videotaped, and rearing behaviour was scored blindly at a later date. […]
Occasionally an animal progressed through several types of rears before touching down, in which case the time the animal spend in each rearing height was measured by counting the single video frames. Data were expressed as number of attempts (rears), attempt duration and the time each animal spend in the different rearing heights.

[3] = tested on: severe spinal cord contusion injury; assay: BBB open field locomotor rating scale after severe spinal cord contusion injury, oral treatment; type: in vivo, Lewis rats
Description: as §2
Oral Treatment with a Imidazotriazinone after Severe Spinal Cord Contusion Injury in the Rat.
Thirteen week-old female Lewis rats (Charles River, Sulzfeld Germany) were housed under a 12:12 h dark/light regime and allowed free access to water and food. After one week of habituation the animals underwent general anesthesia with a mixture of isoflurane and air (induction: 5% isoflurane, maintenance: 2.2% isofluorane). A Th10 laminectomy was performed without rupturing the dura and a severe contusive SCI (25 gcm NYU/MASCIS II impactor) (Gruner, 1992) was induced. After suturing muscle and skin, a subcutaneous (s.c.) injection of 5 ml of Ringers Lactate was given. Bladders were emptied manually 2 times a day until spontaneous voiding returned (usually within 1 week). The lesion severity was verified by the impact velocity and contusion depth of the impactor rod. Animals with an impact velocity error >5% were excluded from further analysis. After injury, individual rats were randomly assigned into a treatment group. The following groups were used: […]

embryonic DRG explants = assay: Axonal growth and Schwann cell expansion in embryonic DRG explants; type: cell-based, Wistar rat
Description: In vitro experiments with an imidazotriazinone to improve axonal growth and Schwann cell expansion in embryonic DRG explants of rats.
Outgrowth studies with 7-(4-tert-butylcyclohexyl)-5-ethyl-2-phenylimidazo[5,1-f][1,2,4]triazin-4(3H)-one or the vehicle were performed on embryonic neural tissue. DRGs of thoracic, lumbar, and sacral levels were prepared from Wistar rat embryos E18-20 and processed in ice cold 0.6% glucose in PBS. Harvested DRGs were freed from attaching nerve fibres, dissected, and transferred onto poly-D-lysine- and laminin-coated glass coverlips. To avoid cluster formation, a maximum of two DRG explants was transferred onto a single glass coverslip. Following an initial attachment phase, the pre-incubation medium was replaced by fully supplemented growth medium spiked with the test item (7-(4-tert-butylcyclohexyl)-5-ethyl-2-phenylimidazo[5,1-f][1,2,4]triazin-4(3H)-one groups 2 and 3) or vehicle (DMF, group 1) and incubated at 37° C./10% CO2 for additional 22 hours in vitro. Following 22 hours in vitro, the DRG explants were fluorescently labelled and axonal growth and Schwann cell expansion were quantitatively assessed.
The following experimental groups were included into the study: • Fully supplemented growth medium with 0.1% vehicle. • Fully supplemented growth medium with 0.1% vehicle and 7-(4-tert-butylcyclohexyl)-5-ethyl-2-phenylimidazo[5,1-f][1,2,4]triazin-4(3H)-one at a final concentration of 0.01 μM. • Fully supplemented growth medium with 0.1% vehicle and 7-(4-tert-butylcyclohexyl)-5-ethyl-2-phenylimidazo[5,1-f][1,2,4]triazin-4(3H)-one at a final concentration of 0.1 μM. • Fully supplemented growth medium with 0.1% vehicle and 7-(4-tert-butylcyclohexyl)-5-ethyl-2-phenylimidazo[5,1-f][1,2,4]triazin-4(3H)-one at a final concentration of 1 μM.

[4] = compared to vehicle control animals (FIG. 3)
[5] = tested 0.01, 0.1 and 1 μM, 22 hours in vitro

CCc1nc(C2CCC(C(C)(C)C)CC2)n2nc(-c3ccccc3)[nH]c(=O)c12 (stereo not drawn) [7-(4-tert-butylcyclohexyl)-5-ethyl-2-phenylimidazo[5,1-f][1,2,4]triazin-4(3H)-one]
BBB locomotor rating scale, treatment effect over the entire time-period of the assessment ([1]; intrathecal 100 μM, 0.5 μl/h over 14 days, ANOVA-RM p=0.013 vs vehicle (FIG. 2)): significant effect
functional recovery after severe spinal cord contusion (overall, example 2) ([1]; intrathecal treatment, rat): significantly improves functional recovery
duration of rearing attempts [2, 4]: longer in time
height reached by forepaws in rearing attempts [2, 4]: reached much higher
types of rears performed ([2]; vehicle animals only crouch or rear): able to perform standing and even reaching
BBB score at steady state ([3]; 10 mg in vehicle, vehicle animals 7.8 (FIG. 4)): 9.0
BBB score at the end of the experiment compared to vehicle controls ([3]; 10 mg, DPO 56, Students T-Test p=0.0012 (FIG. 5)): performed significantly better
Schwann cell numbers compared to vehicle-treated cultures (embryonic DRG explants; 0.01-1 μM, 22 hours in vitro): increased nearly fourfold
Schwann cell expansion (numbers of Schwann cells outside the DRG explant core) (embryonic DRG explants; 0.01-1 μM, 22 hours in vitro (FIG. 1B)): significant increase
growth area of outgrowing axons (embryonic DRG explants; 0.01-1 μM, 22 hours in vitro, compared to vehicle-treated cultures (FIG. 1A)): significant increase
concentration at which Schwann cell numbers were highest (embryonic DRG explants; [5]): 0.1 µM
concentration at which elevation of axonal growth areas was highest (embryonic DRG explants; [5]): 0.1 µM
